# Test results from patent US5744468A (Lin; Tong-Ho, priority 1996, dated 1998).
# Read-outs that look alike come from different tables or passages of the source.
# Legend:
# [1] = test system: intraocular pressure (IOP) in rabbits; details: 50 μl
# Procedure: New Zealand albino rabbits of either sex were used in the study. A 20% hypertonic saline solution was infused at the speed of 1 ml per min for 10 minutes through the marginal ear vein with an infusion pump.
# Then the IOP of both eyes were measured with a Tono-Pen XL Tonometer (Mentor, Norwell, Mass.) at 30 minute and 10 minute intervals before the experiment. At the time of commencement, as well as at 10, 20, 40, 60, and 80 rain intervals measurements were taken, Then measurements were repeated at every 30 minute intervals.
# [2] = test system: dopamine D3 receptor mRNA; details: daily doses clozapine 30 mg/kg, sulpiride 100 mg/kg; male Wistar rats; long term; cited from earlier work
smiles,measurement,setting,value
CCN1CCCC1CNC(=O)c1cc(S(N)(=O)=O)ccc1OC (stereo not drawn) [Sulpiride],effect on IOP recovery,"[1]; 0.5% drop solution, instilled in eye",didn't show a significant ability in decreasing lOP
same,effect on IOP recovery,"[1]; 20% drop solution, listed as sulpiride",able to decrease the intraocular pressure (IOP)
same,mRNA levels in the dopamine D3 receptor,[2],large increase
